Test results: PMC3684073 (Journal of agricultural and food chemistry, 2008)
Where two headings read alike, the source gives them in different places.

What was measured:
5-HT7 receptor [1] = target: T1, 5-HT7 receptor (Homo sapiens, UniProt P34969); test: 5-HT7 receptor competitive binding assay; conditions: for 5-HT7 competitive binding % Inhibition ± SD: tested at 50 μM, NA = not active
5-HT7 receptor [2] = target: T1, 5-HT7 receptor; test: Intracellular cAMP assay in 5-HT7-transfected HEK293 cells; assay type: cell-based
[3] = target: human serotonin transporter (hSERT) (Homo sapiens, UniProt P31645); test: cell-based
5-HT1A = target: T2, 5-HT1A (Homo sapiens, UniProt P08908); test: MDS Pharma serotonin receptor binding, 5-HT1A
T2 sequence (P08908 1-422): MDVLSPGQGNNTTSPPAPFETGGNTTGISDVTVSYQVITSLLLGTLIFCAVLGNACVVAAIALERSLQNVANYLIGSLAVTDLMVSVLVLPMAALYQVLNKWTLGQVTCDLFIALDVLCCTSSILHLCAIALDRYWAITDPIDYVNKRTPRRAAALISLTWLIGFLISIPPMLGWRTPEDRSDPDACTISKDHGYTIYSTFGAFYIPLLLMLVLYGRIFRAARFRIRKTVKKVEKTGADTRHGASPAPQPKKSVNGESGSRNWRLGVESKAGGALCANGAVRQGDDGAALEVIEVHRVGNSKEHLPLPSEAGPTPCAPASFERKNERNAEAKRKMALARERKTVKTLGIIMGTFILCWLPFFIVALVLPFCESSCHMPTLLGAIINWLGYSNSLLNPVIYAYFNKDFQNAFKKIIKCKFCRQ

5-HT1B = 5-HT1B (Rattus norvegicus, UniProt P28564); test: MDS Pharma serotonin receptor binding, 5-HT1B
5-HT2B = 5-HT2B (Homo sapiens, UniProt P41595); test: MDS Pharma serotonin receptor binding, 5-HT2B
5-HT2C = target: T3, 5-HT2C (Homo sapiens, UniProt P28335); test: MDS Pharma serotonin receptor binding, 5-HT2C
T3 sequence (P28335 33-458): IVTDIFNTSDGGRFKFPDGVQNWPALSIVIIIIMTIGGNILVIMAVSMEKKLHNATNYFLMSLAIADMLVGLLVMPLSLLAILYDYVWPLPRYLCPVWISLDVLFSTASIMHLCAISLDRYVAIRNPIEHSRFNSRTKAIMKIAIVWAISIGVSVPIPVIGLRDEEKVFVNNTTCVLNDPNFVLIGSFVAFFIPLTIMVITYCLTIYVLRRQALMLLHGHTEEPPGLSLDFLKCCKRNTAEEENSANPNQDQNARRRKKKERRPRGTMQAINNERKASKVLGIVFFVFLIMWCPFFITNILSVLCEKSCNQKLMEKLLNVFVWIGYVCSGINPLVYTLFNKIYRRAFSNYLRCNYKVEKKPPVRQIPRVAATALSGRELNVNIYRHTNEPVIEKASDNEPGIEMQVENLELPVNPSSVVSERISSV

5-HT3 = target: T4, 5-HT3 (Homo sapiens, UniProt P46098); test: MDS Pharma serotonin receptor binding, 5-HT3
T4 sequence (P46098 24-478): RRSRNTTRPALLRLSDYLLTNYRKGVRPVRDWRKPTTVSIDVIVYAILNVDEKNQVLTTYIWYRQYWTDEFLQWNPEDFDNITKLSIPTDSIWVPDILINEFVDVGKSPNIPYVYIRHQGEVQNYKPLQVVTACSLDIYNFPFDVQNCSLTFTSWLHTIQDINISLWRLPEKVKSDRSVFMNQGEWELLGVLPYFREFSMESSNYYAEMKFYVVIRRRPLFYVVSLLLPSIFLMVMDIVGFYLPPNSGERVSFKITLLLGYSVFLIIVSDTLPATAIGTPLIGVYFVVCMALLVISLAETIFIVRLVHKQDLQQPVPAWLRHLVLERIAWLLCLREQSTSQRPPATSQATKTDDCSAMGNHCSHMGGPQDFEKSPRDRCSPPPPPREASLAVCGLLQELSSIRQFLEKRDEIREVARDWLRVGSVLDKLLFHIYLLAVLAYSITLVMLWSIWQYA

5-HT4 = 5-HT4 (Cavia porcellus, UniProt O70528); test: MDS Pharma serotonin receptor binding, 5-HT4
5-HT5A = 5-HT5A (Homo sapiens, UniProt P47898); test: MDS Pharma serotonin receptor binding, 5-HT5A
5-HT6 = 5-HT6 (Homo sapiens, UniProt P50406); test: MDS Pharma serotonin receptor binding, 5-HT6
[4] = read-out: 5-HT7 receptor binding IC50, pure compounds

For 23-O-acetylshengmanol-3-β-D-xyloside, the “5-HT7 competitive binding % Inhibition ± SD” value (5-HT7 receptor [1]) was 35 ± 10%.
With 25-anhydrocimigenol-3-O- β-xyloside the “5-HT7 competitive binding % Inhibition ± SD” value (5-HT7 receptor [1]) was 31 ± 8%.
Compound `CC(=O)O[C@@H]1C[C@@]23C[C@@]24CC[C@H](O[C@@H]2OC[C@@H](O)[C@H](O)[C@H]2O)C(C)(C)[C@@H]4CC[C@H]3[C@]2(C)C[C@@H]3O[C@@]4(C[C@@H](C)[C@@H]3[C@@]12C)OC[C@@]1(C)O[C@@H]41` [23-epi-26-deoxyactein] has an IC50 (5-HT7 receptor [1]; [4]) of no less than 100 µM.
`CC(=O)O[C@@H]1C[C@@]23C[C@@]24CC[C@H](O[C@@H]2OC[C@@H](O)[C@H](O)[C@H]2O)C(C)(C)[C@@H]4CC[C@H]3[C@]2(C)C[C@@H]3O[C@]4(C[C@@H](C)[C@@H]3[C@@]12C)OC[C@@]1(C)O[C@@H]41` [26-deoxyactein] was tested, and the IC50 (5-HT7 receptor [1]; [4]) was no less than 100 µM and the “5-HT7 competitive binding % Inhibition ± SD” value (5-HT7 receptor [1]) was 38 ± 4%.
With `COc1cc(/C=C/C(=O)O[C@H](C(=O)O)[C@](O)(Cc2ccc(O)c(O)c2)C(=O)O)ccc1O` [Cimicifugic acid A, cimicifugic acid A] the IC50 (5-HT7 receptor [1]) was greater than 500 µM.
`COc1ccc(/C=C/C(=O)O[C@H](C(=O)O)[C@](O)(Cc2ccc(O)c(O)c2)C(=O)O)cc1O` [Cimicifugic acid B, cimicifugic acid B] gave an IC50 (5-HT7 receptor [1]) greater than 500 µM.
With `COc1cc(/C=C/C(=O)O[C@H](C(=O)O)[C@](O)(Cc2ccc(O)cc2)C(=O)O)ccc1O` [Cimicifugic acid E, cimicifugic acid E] the IC50 (5-HT7 receptor [1]) was greater than 500 µM.
Work on `COc1ccc(/C=C/C(=O)O[C@H](C(=O)O)[C@](O)(Cc2ccc(O)cc2)C(=O)O)cc1O` [Cimicifugic acid F, cimicifugic acid F] yielded an IC50 (5-HT7 receptor [1]) greater than 500 µM.
For `CC(=O)O[C@@H]1C[C@@]23C[C@@]24CC[C@H](O[C@@H]2OC[C@H](O)[C@H](O)[C@H]2O)C(C)(C)[C@@H]4CC[C@H]3[C@]2(C)C[C@@H]3O[C@]4(C[C@@H](C)[C@@H]3[C@@]12C)OC[C@]1(C)O[C@H]41` [Cimiracemoside N], the “5-HT7 competitive binding % Inhibition ± SD” value (5-HT7 receptor [1]) was 18 ± 4%.
`CC(=O)O[C@@H]1CO[C@@H](O[C@H]2CC[C@]34C[C@]35C[C@@H](OC(C)=O)[C@]3(C)[C@H]6[C@H](C)C[C@]7(OC(O)[C@]8(C)O[C@H]78)O[C@H]6C[C@@]3(C)[C@@H]5CC[C@H]4C2(C)C)[C@H](O)[C@H]1O` (stereo partly drawn) [Cimiracemoside O] was tested, and the “5-HT7 competitive binding % Inhibition ± SD” value (5-HT7 receptor [1]) was 19 ± 5%.
For `CNCCc1c[nH]c2ccc(O)cc12` [Nω-methylserotonin, 3-(2-Methylaminoethyl)indol-5-ol], the IC50 (5-HT7 receptor [1]; 5-HT7 receptor binding IC50) was 2.3e-05 µM, the IC50 (5-HT7 receptor [1]; IC50, 5-HT7, triplicate in three independent experiments) was 2e-05 µM and the EC50 (5-HT7 receptor [2]) was 22 nM. The “maximum cAMP induction” value (5-HT7 receptor [2]; at 100 nM, the highest tested concentration) was 43 pmol/mL, the IC50 [3] was 490 nM and the IC50 (5-HT1A) was 2 nM. The IC50 (5-HT1B) was 15 nM, the IC50 (5-HT2B) was 97 nM and the IC50 (5-HT2C) was 101 nM. The IC50 (5-HT3) was 1670 nM, the IC50 (5-HT4) was 6.7 µM and the IC50 (5-HT5A) was 289 nM. For the same compound, the IC50 (5-HT6) was 55 nM.
For `O=C(/C=C/c1ccc(O)c(O)c1)O[C@H](C(=O)O)[C@](O)(Cc1ccc(O)c(O)c1)C(=O)O` [fukinolic acid], the IC50 (5-HT7 receptor [1]) was 100 µM.
Actein (R,S) was tested, and the IC50 (5-HT7 receptor [1]; [4]) was no less than 100 µM.
